From patent US20140271667A1, “Methods and Compositions for Neoadjuvant Therapy” (The Wistar Institute of Anatomy and Biology, priority 2013, published 2014) come the findings set out here.

Common to all, as to type: cell-based, human
One test deals with Raptor. Put plainly: Western blotting, Raptor phosphorylation. Particulars: PC3; Gamitrinib 5 μM, metformin 5 mM 6 h, 17-AAG 5 μM. The procedure: (§1) Protein lysates were prepared in RIPA buffer containing 150 mM NaCl, 1.0% Triton X-100, 0.5% sodium deoxycholate, 0.1% SDS, 50 mM Tris, pH 8.0, in the presence of EDTA-free protease inhibitor cocktail (Roche) and phosphatase inhibitor cocktail 2 and 3 (Sigma Aldrich). Equal amounts of protein lysates were separated by SDS gel electrophoresis, transferred to PVDF membranes and incubated with primary antibodies of various specificities. Protein bands were detected by chemiluminescence, as described (21).

Test [1] deals with p21-activated kinases, Pak-1,2. Put plainly: Western blotting, Pak phosphorylation. Particulars: Gamitrinib 5 μM. As to the method: as §1
(In general: A western blot detects proteins with antibodies after separation by electrophoresis.)

The test system of a further test is ULK1. Kind of test: Western blotting, ULK1 phosphorylation and level. Particulars: PC3. The procedure:
as §1

In test [2] the test system is Focal Adhesion Kinase (FAK). Kind of test: Western blotting, FAK phosphorylation. Particulars: tumor cells (PC3); Gamitrinib 5 μM, CCCP 12.5 μM, rapamycin 0.1 μM. The procedure:
as §1

A further test concerns PC3 cells. Kind of test: Cell proliferation by direct cell counting. Particulars: vs vehicle, Gamitrinib 5 μM, CCCP 12.5 μM, 2-DG 25 mM. As to the method:
Tumor cells were plated onto 96-well plates at 3.7×10^3/well and treated with vehicle or Gamitrinib (5 μM). After 24 h, cell viability was assessed with a 3 (4,5-dimethyl-thyazoyl-2-yl)2,5 diphenyltetrazolium bromide (MTT) colorimetric assay (24), or, alternatively, by Trypan blue exclusion and light microscopy. Data were background-subtracted relative to vehicle-treated cultures. In some experiments, tumor cell proliferation was assessed by direct cell counting and light microscopy.

Entries after “also recorded” stand apart in the source; their conditions may differ.

For Gamitrinib, the “Raptor phosphorylation on Ser792” value with Raptor is listed as “induced strong phosphorylation”. Further, the “Pak-1,2 phosphorylation on Ser199, Ser144 and Ser20” value in test [1] is given as “inhibited the phosphorylation”. In the test on ULK1 (Gamitrinib 5 μM (within 1-2 h), metformin 5 mM 6 h, 17-AAG 5 μM), the “ULK1 phosphorylation on Ser555” value is on record as “phosphorylation of ULK1 on Ser555”. The “ULK1 phosphorylation on Ser757” value in the test on ULK1 (Gamitrinib 5 μM, metformin 5 mM 6 h, 17-AAG 5 μM) was “decreased phosphorylation on Ser757”. Moreover, the “total level of ULK1” value with ULK1 (time points of the Western blot experiment) is “not affected”. Further, the “FAK phosphorylation on Tyr397 and Tyr925” value in test [2] is “loss of phosphorylation”. In addition, in the test on PC3 cells, the tumor cell proliferation result is reported as “did not reduce tumor cell proliferation; also recorded: did not affect cell proliferation”.
